Earlier results, collected in patent US20200078333A1, “Healthier Aging in Domesticated Animals” (priority 2016, published 2020).

Key:
CB2 [1] = target: T1, CB2 (Homo sapiens, UniProt P34972)
CB1 [2] = target: T2, CB1 (Homo sapiens, UniProt P21554); conditions: read-out: binding affinity to CB1
CB1 [3] = target: T2, CB1; conditions: Ca2+ flux induced by AEA
[4] = healthy as well as unhealthy persons
CB2 [5] = target: T1, CB2; remark: listed apart in the source
[6] = target: human CB1 cannabinoid receptors (Homo sapiens, UniProt P21554); conditions: selective binding; function as antagonists/inverse agonists
Sequence of human CB1 cannabinoid receptors (P21554 whole entry): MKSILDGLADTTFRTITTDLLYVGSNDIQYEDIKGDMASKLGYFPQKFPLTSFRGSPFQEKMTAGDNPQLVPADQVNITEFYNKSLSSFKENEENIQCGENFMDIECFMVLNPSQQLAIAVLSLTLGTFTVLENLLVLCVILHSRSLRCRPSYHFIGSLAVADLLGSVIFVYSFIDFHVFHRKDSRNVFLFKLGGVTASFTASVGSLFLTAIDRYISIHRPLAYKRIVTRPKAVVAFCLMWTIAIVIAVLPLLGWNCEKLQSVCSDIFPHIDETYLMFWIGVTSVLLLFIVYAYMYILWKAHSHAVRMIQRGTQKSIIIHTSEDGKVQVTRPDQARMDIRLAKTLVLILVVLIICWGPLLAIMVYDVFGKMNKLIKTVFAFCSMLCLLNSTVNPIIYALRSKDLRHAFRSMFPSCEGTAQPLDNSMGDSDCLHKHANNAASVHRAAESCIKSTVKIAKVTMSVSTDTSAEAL

[7] = tested on: nitric oxide (NO) production; conditions: read-out: IC50 for inhibition of NO production

T1 sequence (P34972 whole entry, species assumed): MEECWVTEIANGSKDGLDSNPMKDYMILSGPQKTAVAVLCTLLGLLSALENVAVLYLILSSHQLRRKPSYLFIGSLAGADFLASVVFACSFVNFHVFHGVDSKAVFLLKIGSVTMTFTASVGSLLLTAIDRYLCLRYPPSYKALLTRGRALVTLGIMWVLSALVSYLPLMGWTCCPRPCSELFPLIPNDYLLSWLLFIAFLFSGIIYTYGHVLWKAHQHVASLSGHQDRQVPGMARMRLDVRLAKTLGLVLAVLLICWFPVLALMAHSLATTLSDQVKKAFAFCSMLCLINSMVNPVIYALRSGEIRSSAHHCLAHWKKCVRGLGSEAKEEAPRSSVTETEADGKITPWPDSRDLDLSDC
T2 sequence (P21554 whole entry, species assumed): as the sequence (P21554 whole entry) above

Question: For `CCCCCC=CCCC=CC=CC(=O)N1CCCCC1` [1-[(2E,4E,8Z)-tetradecatrienoyl] piperidine], which “CB1/CB2 affinity (CB2 selectivity)” value (CB2 [1]; ratio CB1/CB2) is on record?
Answer: ~5

Question: What about the Ki (CB2 [1]; read-out: binding affinity to CB2) of the same compound?
Answer: 0.16 µM

Question: And the Ki (CB1 [2])?
Answer: 0.8 µM

Question: Which “inhibition in responses to CB1 agonist” value (CB1 [3]) does the source give for `CC1(C)[C@@H](O)CC[C@]2(C)[C@H]3C(=O)C=C4[C@@H]5C[C@@](C)(C(=O)O)CC[C@]5(C)CC[C@@]4(C)[C@]3(C)CC[C@@H]12` [18β-glycyrrhetinic acid] here?
Answer: more than 90%

Question: Which tolerated daily dosage [4] does the source give for `COC1=C(OC)C(=O)C(C/C=C(\C)CC/C=C(\C)CC/C=C(\C)CC/C=C(\C)CC/C=C(\C)CC/C=C(\C)CC/C=C(\C)CC/C=C(\C)CC/C=C(\C)CCC=C(C)C)=C(C)C1=O` [CoQ10, ubiquinone] here?
Answer: up to 3600 mg

Question: Which “affinity for CB2” value (CB2 [5]) does the source give for `COc1cc(/C=C/C(=O)CC(=O)/C=C/c2ccc(O)c(OC)c2)ccc1O` [curcumin] here?
Answer: micromolar affinity

Question: What about the “affinity for human CB1 cannabinoid receptors” value [6] of the same compound?
Answer: nanomolar affinities

Question: With `C=CCc1ccc(O)c(-c2cc(CC=C)ccc2O)c1` [magnolol] as the compound, how does the IC50 [7] read?
Answer: ~6.2 µM

Question: For `Oc1ccc(/C=C/c2cc(O)cc(O)c2)cc1` [trans-resveratrol], which “affinity for human CB1 cannabinoid receptors” value [6] is on record?
Answer: nanomolar affinities
